Laboratory results published in PubChem BioAssay (NCI).
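Dose response: 5 concentrations. Exposure: 48 h. Format: 96-well plates. Endpoint: linear interpolation; highest concentration if not reached. TGI denotes the concentration required for complete inhibition of growth.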

Columns and labels:
Assay in all cases: inhibition of tumour cell growth, NCI panel, 48 h
[1] = tested on: 786-0 renal
[2] = tested on: T-47D breast
[3] = tested on: HCT-15 colon
[4] = tested on: BT-549 breast
[5] = tested on: MDA-MB-435
[6] = tested on: HL-60(TB) leukemia
[7] = tested on: SK-MEL-5 melanoma
[8] = tested on: OVCAR-3 ovarian
[9] = tested on: ACHN renal
[10] = tested on: OVCAR-5 ovarian

Structure (SMILES) | TGI [1] [µM] | TGI [2] [µM] | TGI [3] [µM] | TGI [4] [µM] | TGI [5] [µM] | TGI [6] [µM] | TGI [7] [µM] | TGI [8] [µM] | TGI [9] [µM] | TGI [10] [µM]
Clc1ccc2c(SCC3CO3)c3ccccc3nc2c1 (stereo not given) | 3.44 | 4.97 | 3.34 | 18.7 | 20.2 | 2.59 | 9.07 | 3.27 | 4.55 | 10.4
CNC(=O)c1ccccc1-[s+]1c2ccccc2c(=O)n1C (stereo not given) | > 100 | > 100 | > 100 | > 100 | > 100 | > 100 | > 100 | > 100 | > 100 | > 100
O=S(=O)(Oc1ccc2oc3ccccc3c2c1-c1c(OS(=O)(=O)C(F)(F)F)ccc2oc3ccccc3c12)C(F)(F)F | > 100 | > 100 | > 100 | > 100 | > 100 | > 100 | > 100 | > 100 | > 100 | > 100
O=C(Cc1ccccc1)NCCc1ccc(O)c(O)c1 | > 100 | > 100 | > 100 | > 100 | 33.8 | 51.9 | > 100 | > 100 | > 100 | > 100
CCOc1cc2c(cc1O)/C(=N\N)C[C@@H]1[C@@H]2CC[C@]2(C)[C@@H](O)CC[C@@H]12 | > 38.5 | > 39.5 | 16.8 | 29.8 | 4.95 | > 61.9 | 28 | 12.4 | > 100 | > 86
C=CCC1(O)c2ccccc2C(=O)c2c(O)ccc(O)c21 (stereo not given) | 31.8 | > 59.2 | > 75.7 | 36.3 | 6.43 | 13 | 23.1 | > 57.6 | 46.3 | 60.4
O=C(O)[C@H]1[C@@H](C2CCCCC2)O[C@@H](C2CCCCC2)O[C@H]1C(F)(F)F | 33.5 | > 100 | 88.1 | 98.6 | 35.5 | 62.6 | 44.4 | 39 | 32.7 | 47.4
O=C1N[C@H]2c3c(Cl)sc(Cl)c3/C(=N/O)[C@H]2O1 | > 100 | > 100 | > 100 | > 100 | > 100 | 57.9 | > 100 | > 100 | > 100 | > 100
Nc1nc2c(=O)c3ccccc3sc2s1 | > 100 | > 100 | > 100 | > 100 | > 100 | > 100 | > 100 | > 100 | > 100 | > 100
